# Patent US20230338316A1, “ABBAPOLINS AS INHIBITORS AND DEGRADERS OF POLO-LIKE KINASES” (UNIVERSITY OF SOUTH CAROLINA, priority 2022, published 2023)
# How the values were obtained:
# U251 = assay: Single dose cell viability assay, U251; assay type: cell-based; details: U251 (CNS), single dose 25 μM
# Method: (§1) Lead abbapolin compounds were tested in multiple cancer cell lines, including non-small cell lung cancer (NSCLC) cells, melanoma cells, colon cancer cells, central nervous system (CNS) cancer cells, prostate cancer cells, renal cancer cells, and breast cancer cells. Each of these cancer cells lines were sensitive to the lead abbapolin compounds in a cell viability assay, including 6184 (Table 3), 6277 (Table 4), 6279 (Table 5), 6355 (Table 6), 6359 (Table 7), 6369 (Table 8), and 6421 (Table 9).
# K-562 = assay: Single dose cell viability assay, K-562; assay type: cell-based; details: K-562 (Leukemia), single dose 25 μM
# Method: as §1
# SF-295 = assay: Single dose cell viability assay, SF-295; assay type: cell-based; details: SF-295 (CNS), single dose 25 μM
# Method: as §1
# PLK1 PBD (367-603) = target: T1, PLK1 PBD (367-603) (Homo sapiens, UniProt P53350); assay: Fluorescence polarization assay, PLK1 PBD; assay type: binding; details: fluorescence polarization; read-out: PLK1 PBD IC50
# T1 construct: PLK1 PBD (367-603) and PLK3 PBD (335-646) proteins were obtained from BPS Biosciences Inc; purchased BPS Biosciences Inc. (San Diego, CA)
# T1 sequence (P53350 367-603): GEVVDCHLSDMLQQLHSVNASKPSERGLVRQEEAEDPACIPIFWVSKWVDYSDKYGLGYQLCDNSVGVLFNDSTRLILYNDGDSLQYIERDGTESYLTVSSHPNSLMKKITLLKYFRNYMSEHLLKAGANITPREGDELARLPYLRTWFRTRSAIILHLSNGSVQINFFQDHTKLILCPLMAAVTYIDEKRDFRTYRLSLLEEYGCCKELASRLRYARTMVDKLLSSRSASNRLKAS
# Method: (§2) Materials were dissolved in DMSO (10 mM) and diluted from 10 nM to 600 μM (maximum of 6% DMSO tolerance in the assay). PLK1 PBD (367-603) and PLK3 PBD (335-646) proteins were obtained from BPS Biosciences Inc. (San Diego, CA); 17 ng PLK1 and 156 ng PLK3 were used per reaction. The fluorescein-tracer phospho-peptides (MAGPMQS[pT]PLNGAKK (SEQ ID NO: 1) for PLK1, and GPLATS[pT]PKNG (SEQ ID NO: 2) for PLK3) were used at a final concentration of 10 nM. Incubation was carried out at room temperature for 45 minutes. Fluorescence was measured using a DTX 880 plate reader and Multimode Analysis software (Beckman Coulter, Brea, CA). The polarization values in millipolarization (mP) units were measured at an excitation wavelength of 488 nm and an emission wavelength of 535 nm. Each data point was performed in triplicate for every experiment, and experiments were performed at least three times. An IC50 value for each compound was calculated from linear regression analysis of the plots.
# HOP-92 = assay: Single dose cell viability assay, HOP-92; assay type: cell-based; details: HOP-92 (NSCLC), single dose 25 μM
# Method: as §1
# CCRF-CEM = assay: Single dose cell viability assay, CCRF-CEM; assay type: cell-based; details: CCRF-CEM (Leukemia), single dose 25 μM
# Method: as §1
# KM12 = assay: Single dose cell viability assay, KM12; assay type: cell-based; details: KM12 (Colon), single dose 25 μM
# Method: as §1
# SNB-19 = assay: Single dose cell viability assay, SNB-19; assay type: cell-based; details: SNB-19 (CNS), single dose 25 μM
# Method: as §1
# ACHN = assay: Single dose cell viability assay, ACHN; assay type: cell-based; details: ACHN (Renal), single dose 25 μM
# Method: as §1
# RPMI-8226 = assay: Single dose cell viability assay, RPMI-8226; assay type: cell-based; details: RPMI-8226 (Leukemia), single dose 25 μM
# Method: as §1
# HCT-15 = assay: Single dose cell viability assay, HCT-15; assay type: cell-based; details: HCT-15 (Colon), single dose 25 μM
# Method: as §1
# PC-3 = assay: Single dose cell viability assay, PC-3; assay type: cell-based; details: PC-3 (Prostate), single dose 25 μM
# Method: as §1
# NCI-H522 = assay: Single dose cell viability assay, NCI-H522; assay type: cell-based; details: NCI-H522 (NSCLC), single dose 25 μM
# Method: as §1
# LOX IMVI = assay: Single dose cell viability assay, LOX IMVI; assay type: cell-based; details: single dose 25 μM, 48 hours
# Method: as §1
# A549/ATCC = assay: Single dose cell viability assay, A549/ATCC; assay type: cell-based; details: A549/ATCC (NSCLC), single dose 25 μM
# Method: as §1
# HCT-116 = assay: Single dose cell viability assay, HCT-116; assay type: cell-based; details: HCT-116 (Colon), single dose 25 μM
# Method: as §1
# [1] = tested on: SH-SY5Y neuroblastoma cells overexpressing PLK1; assay: Cell viability assay in neuroblastoma cells; assay type: cell-based; details: Homo sapiens, SH-SY5Y
# Method: (§3) Abbapolin compounds activity was evaluated in neuroblastoma cells. […] Further, abbapolins induced PLK1 degradation in SH-SY5Y cells (FIG. 14-16).
# PLK3 PBD (335-646) = target: T2, PLK3 PBD (335-646) (Homo sapiens, UniProt Q9H4B4); assay: Fluorescence polarization assay, PLK3 PBD; assay type: binding
# T2 construct: PLK1 PBD (367-603) and PLK3 PBD (335-646) proteins were obtained from BPS Biosciences Inc; purchased BPS Biosciences Inc. (San Diego, CA)
# T2 sequence (Q9H4B4 335-646): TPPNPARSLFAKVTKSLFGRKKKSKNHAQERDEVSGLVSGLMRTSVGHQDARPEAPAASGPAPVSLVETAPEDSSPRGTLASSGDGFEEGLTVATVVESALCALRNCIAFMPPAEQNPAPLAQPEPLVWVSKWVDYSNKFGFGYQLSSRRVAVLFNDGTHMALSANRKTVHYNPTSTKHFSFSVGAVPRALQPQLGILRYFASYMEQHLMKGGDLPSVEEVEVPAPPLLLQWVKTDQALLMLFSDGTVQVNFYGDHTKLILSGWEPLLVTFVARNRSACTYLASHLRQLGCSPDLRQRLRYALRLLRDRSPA
# Method: as §2
# NCI-H460 = assay: Single dose cell viability assay, NCI-H460; assay type: cell-based; details: NCI-H460 (NSCLC), single dose 25 μM
# Method: as §1
# MOLT-4 = assay: Single dose cell viability assay, MOLT-4; assay type: cell-based; details: MOLT-4 (Leukemia), single dose 25 μM
# Method: as §1
# PLK1 = PLK1 (Homo sapiens, UniProt P53350); assay: PLK1 degradation in SH-SY5Y cells; assay type: cell-based; set-up: endogenous in cells
# Sequence of PLK1 (P53350 whole entry): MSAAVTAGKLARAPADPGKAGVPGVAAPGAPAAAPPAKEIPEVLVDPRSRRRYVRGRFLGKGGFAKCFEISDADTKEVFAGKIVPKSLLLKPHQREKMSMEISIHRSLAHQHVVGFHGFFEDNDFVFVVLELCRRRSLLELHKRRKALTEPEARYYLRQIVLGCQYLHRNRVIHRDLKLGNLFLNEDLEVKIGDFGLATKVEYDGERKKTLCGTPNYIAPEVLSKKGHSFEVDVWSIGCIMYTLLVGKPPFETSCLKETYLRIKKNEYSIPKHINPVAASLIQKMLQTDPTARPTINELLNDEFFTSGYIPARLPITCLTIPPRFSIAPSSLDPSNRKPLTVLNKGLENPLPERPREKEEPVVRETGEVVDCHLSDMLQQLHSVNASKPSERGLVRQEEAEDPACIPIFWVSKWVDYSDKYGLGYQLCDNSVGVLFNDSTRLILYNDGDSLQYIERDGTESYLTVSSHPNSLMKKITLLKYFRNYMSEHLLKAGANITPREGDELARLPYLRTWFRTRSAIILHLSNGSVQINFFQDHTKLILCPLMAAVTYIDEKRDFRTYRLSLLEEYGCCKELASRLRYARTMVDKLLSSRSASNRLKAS
# Method: as §3
# SR = assay: Single dose cell viability assay, SR; assay type: cell-based; details: SR (Leukemia), single dose 25 μM
# Method: as §1
# HL-60(TB) = assay: Single dose cell viability assay, HL-60(TB); assay type: cell-based; details: HL-60(TB) (Leukemia), single dose 25 μM
# Method: as §1
# T-47D = assay: Single dose cell viability assay, T-47D; assay type: cell-based; details: T-47D (Breast), single dose 25 μM
# Method: as §1
# NCI-H23 = assay: Single dose cell viability assay, NCI-H23; assay type: cell-based; details: NCI-H23 (NSCLC), single dose 25 μM
# Method: as §1
# MDA-MB-468 = assay: Single dose cell viability assay, MDA-MB-468; assay type: cell-based; details: MDA-MB-468 (Breast), single dose 25 μM
# Method: as §1
# NCI-H226 = assay: Single dose cell viability assay, NCI-H226; assay type: cell-based; details: NCI-H226 (NSCLC), single dose 25 μM
# Method: as §1
# SK-MEL-2 = assay: Single dose cell viability assay, SK-MEL-2; assay type: cell-based; details: SK-MEL-2 (Melanoma), single dose 25 μM
# Method: as §1
# EKVX = assay: Single dose cell viability assay, EKVX; assay type: cell-based; details: EKVX (NSCLC), single dose 25 μM
# Method: as §1
# SK-MEL-5 = assay: Single dose cell viability assay, SK-MEL-5; assay type: cell-based; details: SK-MEL-5 (Melanoma), single dose 25 μM
# Method: as §1
# UACC-62 = assay: Single dose cell viability assay, UACC-62; assay type: cell-based; details: UACC-62 (Melanoma), single dose 25 μM
# Method: as §1
# UO-31 = assay: Single dose cell viability assay, UO-31; assay type: cell-based; details: UO-31 (Renal), single dose 25 μM
# Method: as §1
# MCF7 = assay: Single dose cell viability assay, MCF7; assay type: cell-based; details: MCF7 (Breast), single dose 25 μM
# Method: as §1
compound,measurement,setting,value
CCCCCCCCc1ccc(C(=O)Nc2ccc(C)cc2C(=O)O)cc1O [compound 6279],Cells Remaining (%),U251,45.14%
same,Cells Remaining (%),K-562,49.7%
same,Cells Remaining (%),SF-295,59.38%
same,IC50,PLK1 PBD (367-603),31.8 µM
same,Cells Remaining (%),HOP-92,57.85%
same,Cells Remaining (%),CCRF-CEM,55.59%
same,Cells Remaining (%),KM12,52.19%
same,Cells Remaining (%),SNB-19,43.49%
same,Cells Remaining (%),ACHN,61.79%
same,Cells Remaining (%),RPMI-8226,63.91%
same,Cells Remaining (%),HCT-15,56.83%
same,Cells Remaining (%),PC-3,58.63%
same,Cells Remaining (%),NCI-H522,59.89%
CCCCCCCCc1cccc(CC(=O)Nc2ccc(C)cc2C(=O)O)c1 [compound 6277],Cells Remaining (%),K-562,28.94%
same,inhibition at 25 µM,"LOX IMVI; Homo sapiens, LOX IMVI, from cells remaining",96.4%
same,Cells Remaining (%),LOX IMVI; LOX IMVI (Melanoma),3.4%
same,Cells Remaining (%),A549/ATCC,31.38%
same,Cells Remaining (%),HCT-116,28.14%
same,IC50,PLK1 PBD (367-603),19.7 µM
same,IC50,[1],5.25 ± 0.5 µM
same,IC50,PLK3 PBD (335-646),29.4 µM
same,Cells Remaining (%),NCI-H460,20.45%
same,Cells Remaining (%),CCRF-CEM,26.74%
same,Cells Remaining (%),MOLT-4,17.93%
same,PLK1 degradation,PLK1,degradation of PLK1
same,Cells Remaining (%),RPMI-8226,25.43%
same,Cells Remaining (%),HCT-15,13.2%
same,Cells Remaining (%),SR,31.08%
CCCCCCCCc1ccc(C(=O)Nc2ccccc2O)cc1 [compound 6421],Cells Remaining (%),HL-60(TB),69.66%
same,Cells Remaining (%),K-562,53.71%
same,Cells Remaining (%),T-47D,27.32%
same,Cells Remaining (%),NCI-H23,62.07%
same,Cells Remaining (%),MDA-MB-468,45.03%
same,Cells Remaining (%),NCI-H226,66.21%
same,Cells Remaining (%),SK-MEL-2,38.46%
same,Cells Remaining (%),CCRF-CEM,37.43%
same,Cells Remaining (%),MOLT-4,58.2%
same,Cells Remaining (%),EKVX,52.89%
same,Cells Remaining (%),RPMI-8226,48.98%
same,Cells Remaining (%),SK-MEL-5,70.42%
same,Cells Remaining (%),UACC-62,69.99%
same,Cells Remaining (%),UO-31,59.4%
same,Cells Remaining (%),MCF7,35.21%
same,Cells Remaining (%),NCI-H522,70.52%
